According to US20200129499A1, “COMBINATION OF TASQUINIMOD OR A PHARMACEUTICALLY ACCEPTABLE SALT THEREOF AND A PD-1 AND/OR PD-L1 INHIBITOR, FOR USE AS A MEDICAMENT” (ACTIVE BIOTECH AB, priority 2015, published 2020):

What was measured:
Format in all cases: in vivo, mouse
PD-L1 in CD1 1b+ cells = test: FACS analysis of PD-L1 on tumor CD11b+ myeloid cells
Protocol: FIG. 3: Median Fluorescence Intensity (MFI) of PD-L1 in CD1 1b+ cells derived from mice bearing tumors treated with tasquinimod. The mice were treated with 30 mg/kg p.o. of tasquinimod twice daily from day 10 after tumor inoculation. Tasquinimod treatment was carried out for 7 days. This analysis was done by cytometry.
FIG. 4: Treatment with tasquinimod had no effect on established MBT-2 tumor growth and induced an alteration in the profile of PD-1/PD-L1 axis. (A) Growth curves and (B) tumor weight of MBT-2 tumors treated with tasquinimod at 30 mg/kg (oral gavage, twice daily) after randomization at day 11 post tumor-cell inoculation (n=12). Mice were sacrificed. Tumors were harvested, digested and then subjected to surface staining. […] (D) Quantitative data of the Median Fluorescence Intensity of PD-L1 gated on infiltrating myeloid cells CD1 1b+ (*, P<0.05; Mann-Whitney test, n=5 mice per group).
Mice were treated as described in Example 1. […] Cells were analyzed by Fortessa X-20 (BD Biosciences).
Single cell suspensions were prepared from tumors by incubating the tumors cross-cut into small pieces in 8 mg/ml Collagenase IV (Life Technologies) and 0.1% DNase (Sigma-Aldrich) for 45 min at 37° C. […] Data were analyzed using FlowJo software (Tree Star Inc.). […] This procedure yielded predominantly CD1 1b+ cells with purity greater than 80% as assessed by FACS analysis.

MBT-2 tumors [1] = test: Gene expression profiling (qRT-PCR) in MBT-2 tumors after 10 days of tasquinimod (Example 2); conditions: 30 mg/kg p.o. twice daily from day 10 for 10 days; FIG. 2
Protocol: FIG. 2: Gene expression profiling in MBT-2 tumors derived from mice treated with 30 mg/kg p.o. of tasquinimod twice daily from day 10 after tumor inoculation. Tasquinimod treatment was carried out for 10 days. Data are represented as fold change of treated tumors compared to control tumors.
Mice were treated as described in Example 1. After 10 days of treatment with tasquinimod, i.e. 20 days after tumor inoculation, RNA from tumors was isolated from 100 μηη of OCT-embedded tumor cryosections using Trizol Reagent (Life Technologies). RNA concentration and purity was determined through measurement of A260/A280 ratios with a NanoDrop ND-1000 spectrophotometer. RNA integrity was checked using the Agilent 2100 Bioanalyzer. cDNA was prepared using High-Capacity cDNA Reverse Transcription Kit (LifeTechnologies) following the manufacturer's instructions. Q-PCR was performed with a […] PCR-protocol (95° C. for 10 min, followed by 40 cycles of 95° C. for 15 sec and 60° C. for 1 min) using Taqman gene expression (LifeTechnologies). Expression levels were calculated as normalized ACt expression values between target gene and the two “housekeeping” and Hmbs and Cyclophilin A for Taqman technology. Data were presented as fold induction (2AACt) of treated tumors compared to control tumors. The probes used in the experiments are the following: […]

MBT-2 tumors [2] = test: Differential mRNA expression (qRT-PCR) in established MBT-2 tumors (Table S1)
Protocol: The relative mRNA expression of different genes was examined in MBT-2 tumors of treated animals with tasquinimod as compared to control group. Treatment started at day 11 post-tumor cell inoculation and qRT-PCR analysis was performed at day 15. Results are represented as mean fold-change compared with control. P values were evaluated using student test.
RNA extraction of murine CD1 1b+ was performed using the PicoPure® RNA Isolation Kit (Life Technologies). RNA in tumors was isolated from 100 μ ? -thick cryosections of OCT-embedded tumors using Trizol Reagent (Life Technologies). cDNAs were prepared using the High-Capacity cDNA Reverse Transcription Kit (Life Technologies) following the manufacturer's instructions. cDNA from CD1 1b+ isolated cells was pre-amplified (14 cycles) using the TaqMan PreAmp Master Mix (Life Technologies). Real time PCR (q-PCR) was performed with a two-step PCR protocol (95° C. for 10 min, followed by 40 cycles at 95° C. for 15 s and 60° C. for 1 min) using Taqman gene expression (Life Technologies). The probes that were used are documented in Table S2. Hmbs was used as “housekeeping” gene whose expression was correlated to other housekeeping quantified genes (e.g. Cyclophilin A). Expression levels were calculated as normalized ACt expression values between target gene and “housekeeping” genes.

[3] = tasquinimod 30 mg/kg from day 11, qRT-PCR at day 15

COc1cccc2c1c(O)c(C(=O)N(C)c1ccc(C(F)(F)F)cc1)c(=O)n2C [tasquinimod, 4-hydroxy-5-methoxy-N,1-dimethyl-2-oxo-N-[4-(trifluoromethyl)phenyl]-1,2-dihydroquinoline-3-carboxamide]
median fluorescence intensity of PD-L1 expressed on myeloid cells (PD-L1 in CD1 1b+ cells; 30 mg/kg p.o. twice daily from day 10 for 7 days, FIG. 3): increase
expression of PD-L1 gated on CD1 1b+ cells (PD-L1 in CD1 1b+ cells; established MBT-2 tumors, tasquinimod 30 mg/kg, day 15, FIGS. 4C and D): increase
expression of 11-12b (MBT-2 tumors [1]): increase
expression of CD206, a M2 macrophage marker (MBT-2 tumors [1]): decrease
expression of nos2 (MBT-2 tumors [1]): increase
mRNA expression of Cd274 in the tumor microenvironment (MBT-2 tumors [1]): increase
mRNA expression of PD-L1 in MBT-2 tumors (MBT-2 tumors [2]; established tumors, tasquinimod 30 mg/kg): increased
Fold change tasquinimod/control, CCL5 mRNA (MBT-2 tumors [2]; [3]): 0.88
Fold change tasquinimod/control, CCL7 mRNA (MBT-2 tumors [2]; [3]): 0.90
Fold change tasquinimod/control, Ccl2 mRNA (MBT-2 tumors [2]; [3]): 0.86
Fold change tasquinimod/control, Cd274/PD-L1 mRNA (MBT-2 tumors [2]; [3]): 1.46
Fold change tasquinimod/control, Cxcl5 mRNA (MBT-2 tumors [2]; [3]): 2.31
Fold change tasquinimod/control, Cxcl9 mRNA (MBT-2 tumors [2]; [3]): 0.80
Fold change tasquinimod/control, Cxcl11 mRNA (MBT-2 tumors [2]; [3]): 1.63
Fold change tasquinimod/control, II-12b mRNA (MBT-2 tumors [2]; [3]): 1.71
Fold change tasquinimod/control, Ifng mRNA (MBT-2 tumors [2]; [3]): 1.53
Fold change tasquinimod/control, Mrc1/CD206 mRNA (MBT-2 tumors [2]; [3]): 0.90
Fold change tasquinimod/control, Nos2 mRNA (MBT-2 tumors [2]; [3]): 1.76
Fold change tasquinimod/control, Serpinb2 mRNA (MBT-2 tumors [2]; [3]): 3.65
Fold change tasquinimod/control, Tnf mRNA (MBT-2 tumors [2]; [3]): 1.19
